Assay results as given in patent publication US5843916A, “Cyclic amp analogues, individually and in pairs, to inhibit neoplastic cell growth” (priority 1994, dated 1998).
Like-named read-outs stand apart in the source and are kept apart here.

What was measured:
[1] = system: LOVO Colon carcinoma; assay: Growth of human colon tumor xenograft, ip infusion (Table 9); format: in vivo, human xenograft in athymic CD-1 mice; settings: 7 days
Experimental: (§1) Based on the findings with the […] leukemia model, the efficacy of the 8-Cl-cAMP-Na+infusions were evaluated in advanced-stage human tumor xenograft models. Tumor fragments of approximately 14 mg were implanted subcutaneously in athymic CD-1 female mice and seven day intraperitoneal infusions of the cyclic nucleotide were initiated three weeks later when mean tumor weights had reached 300-400 mg. Tumor measurements were recorded on the initial day of treatment (staging day) and one day after treatment was completed (staging day +7), and were used to calculate changes in tumor weights.
(§2) *Mean tumor weight per group on staging day.
(§3) $Mean tumor weight per group on staging day +7.
(§4) **Change in test tumor wt (finalinitial)/initial test tumor treatment.
(§5) Denoted by negative value.
(§6) $$Change in test tumor wt/change in control tumor wt. Used where test
(§7) tumor size increased during treatment. Denoted by positive value.

[2] = system: BDF1 mice; assay: Toxicity in non-tumor BDF1 mice (Table 6); format: in vivo, mouse; settings: for Toxic deaths, No. killed/No. treated: qd, day 1
Experimental: (§8) Influence of 8-Cl-cAMP-Na^+ on the life span of
(§9) non-tumor BDF1 mice when delivered i.p. by bolus injection
(§10) When delivered qd, day 1 to nontumor BDF1 mice, the 480 and 288 mg/k

[3] = Toxicity in non-tumor BDF1 mice (Table 6); format: in vivo, mouse; settings: mouse, in vivo; for mortality: qd, day 1, read-out: Toxic deaths, No. killed/No. treated
Experimental: as §8, §9, §10

[4] = system: LX-1-Lung carcinoma; assay: Growth of human lung tumor xenograft, ip infusion (Table 9); format: in vivo, human xenograft in athymic CD-1 mice; settings: 7 days
Experimental: as §1, §2, §3, §4, §5, §6, §7

[5] = system: two mammary, one lung, and one colon tumor; assay: Advanced-stage human tumor xenografts, ip infusion; format: in vivo, human xenograft in athymic CD-1 mice; settings: seven day ip infusion
Experimental: as §1

[6] = system: L1210 leukemia; assay: Life span of L1210-inoculated BDF1 mice (Table 7)
[7] = system: MDA-MB-231 mammary carcinoma; assay: Growth of human mammary tumor xenograft, ip infusion (Table 8); format: in vivo, human xenograft in athymic CD-1 mice; settings: 7 days; for % Δ T/T or % Δ T/ΔC: positive = ΔT/ΔC
Experimental: as §1, §2, §3, §4, §5, §6, §7

[8] = system: MX-1 mammary carcinoma; assay: as above; format: in vivo, human xenograft in athymic CD-1 mice; settings: 7 days; for % Δ T/T or % Δ T/ΔC: negative = ΔT/T
Experimental: as §1, §2, §3, §4, §5, §6, §7

[9] = system: LoVo colon tumors; assay: Subcutaneous infusion in tumor-bearing mice; format: in vivo, human xenograft in athymic NCR-NU mice; settings: sc infusion approximately 42 mg/kg/day (1 mg/mouse), seven days

## Nc1ncnc2c1nc(Cl)n2[C@@H]1O[C@@H]2COP(=O)(O)O[C@H]2[C@H]1O [8-Cl-cAMP-Na^+]
[1]; 37 mg/kg/day, initial 288 mg
  Final Mean Tumor Wt: 284 mg
[1]; 37 mg/kg/day, negative = ΔT/T
  % Δ T/T or % Δ T/ΔC: -01%
[1]; 62 mg/kg/day, initial 293 mg
  Final Mean Tumor Wt: 290 mg
[1]; 62 mg/kg/day, negative = ΔT/T
  % Δ T/T or % Δ T/ΔC: -01%
[1]; 104 mg/kg/day
  % Δ T/T or % Δ T/ΔC: -35%
[1]; 104 mg/kg/day, initial 288 mg
  Final Mean Tumor Wt: 317 mg
[2]; 173 mg/kg ip bolus
  Toxic deaths, No. killed/No. treated: 2/5
[2]; 173 mg/kg ip bolus, listed as 8Cl-cAMP-Na^+
  Toxic deaths, No. killed/No. treated: killed 2 of 5 mice
[2]; 288 mg/kg ip bolus
  Toxic deaths, No. killed/No. treated: 5/5
[2]; 288 mg/kg ip bolus, listed as 8Cl-cAMP-Na^+
  Toxic deaths, No. killed/No. treated: lethally toxic for all treated mice
[2]; 480 mg/kg ip bolus
  Toxic deaths, No. killed/No. treated: 5/5
[2]; 480 mg/kg ip bolus, listed as 8Cl-cAMP-Na^+
  Toxic deaths, No. killed/No. treated: lethally toxic for all treated mice
[2]; Single ip dose
  LD10: 122 mg/kg
[3]; 22 mg/kg ip bolus
  mortality: 0%
[3]; 37 mg/kg ip bolus
  mortality: 0%
[3]; 62 mg/kg ip bolus
  mortality: 0%
[3]; 104 mg/kg ip bolus
  mortality: 0%
[3]; Single ip dose
  LD50: 195 mg/kg
[4]; 37 mg/kg/day, initial 330 mg
  Final Mean Tumor Wt: 341 mg
[4]; 37 mg/kg/day, positive = ΔT/ΔC
  % Δ T/T or % Δ T/ΔC: +06%
[4]; 62 mg/kg/day, initial 327 mg
  Final Mean Tumor Wt: 277 mg
[4]; 62 mg/kg/day, negative = ΔT/T
  % Δ T/T or % Δ T/ΔC: -15%
[4]; 104 mg/kg/day, initial 324 mg
  Final Mean Tumor Wt: 270 mg
[4]; 104 mg/kg/day, negative = ΔT/T
  % Δ T/T or % Δ T/ΔC: -17%
[5]
  tumor growth during treatment: caused tumor stasis during treatment
[6]; 0.6 mg/kg/day ip, 24-hr infusion, day 1-5
  Postinoculation lifespan (T/C): 100
[6]; 1.7 mg/kg/day ip, 24-hr infusion, day 1-5
  Postinoculation lifespan (T/C): 100
[6]; 4.8 mg/kg/day ip, 24-hr infusion, day 1-5
  Postinoculation lifespan (T/C): 100
[6]; 13 mg/kg/day ip, 24-hr infusion, day 1-5
  Postinoculation lifespan (T/C): 113
[6]; 22 mg/kg/day ip, 24-hr infusion, day 1-5
  Postinoculation lifespan (T/C): 126
[6]; 22 mg/kg/day ip, qd, day 1-7
  Postinoculation lifespan (T/C): 103
[6]; 37 mg/kg/day ip, 24-hr infusion, day 1-5
  Postinoculation lifespan (T/C): 126
[6]; 37 mg/kg/day ip, qd, day 1-7
  Postinoculation lifespan (T/C): 93
[6]; 62 mg/kg/day ip, 24-hr infusion, day 1-5
  Postinoculation lifespan (T/C): 137
[6]; 62 mg/kg/day ip, qd, day 1-7
  Postinoculation lifespan (T/C): 103
[6]; 104 mg/kg/day ip, 24-hr infusion, day 1-5
  Postinoculation lifespan (T/C): 137
[6]; 104 mg/kg/day ip, qd, day 1-7
  Postinoculation lifespan (T/C): 98
[6]; 173 mg/kg/day ip, 24-hr infusion, day 1-5
  Postinoculation lifespan (T/C): 131
[6]; 288 mg/kg/day ip infusion
  toxicity: toxic
[6]; 288 mg/kg/day ip infusion, listed as 8Cl-cAMP-Na^+
  toxicity: killed 2 to 5 mice
[6]; 288 mg/kg/day ip, 24-hr infusion, day 1-5, toxic
  Postinoculation lifespan (T/C): 128
[6]; 480 mg/kg/day ip infusion
  toxicity: toxic
[6]; 480 mg/kg/day ip infusion, listed as 8Cl-cAMP-Na^+
  toxicity: lethally toxic for all treated mice
[6]; 480 mg/kg/day ip, 24-hr infusion, day 1-5, toxic
  Postinoculation lifespan (T/C): 93
[6]; 800 mg/kg/day ip infusion
  toxicity: toxic
[6]; 800 mg/kg/day ip infusion, listed as 8Cl-cAMP-Na^+
  toxicity: lethally toxic for all treated mice
[6]; 800 mg/kg/day ip, 24-hr infusion, day 1-5, toxic
  Postinoculation lifespan (T/C): 62
[7]; 37 mg/kg/day, initial 367 mg
  Final Mean Tumor Wt: 516 mg
[7]; 37 mg/kg/day
  % Δ T/T or % Δ T/ΔC: +41%
[7]; 62 mg/kg/day, initial 375 mg
  Final Mean Tumor Wt: 471 mg
[7]; 62 mg/kg/day
  % Δ T/T or % Δ T/ΔC: +26%
[7]; 104 mg/kg/day, initial 367 mg
  Final Mean Tumor Wt: 433 mg
[7]; 104 mg/kg/day
  % Δ T/T or % Δ T/ΔC: +18%
[8]; 62 mg/kg/day, initial 337 mg
  Final Mean Tumor Wt: 288 mg
[8]; 62 mg/kg/day
  % Δ T/T or % Δ T/ΔC: -15%
[8]; 104 mg/kg/day, initial 346 mg
  Final Mean Tumor Wt: 323 mg
[8]; 104 mg/kg/day
  % Δ T/T or % Δ T/ΔC: -07%
[8]; 173 mg/kg/day, initial 375 mg
  Final Mean Tumor Wt: 336 mg
[8]; 173 mg/kg/day
  % Δ T/T or % Δ T/ΔC: -10%
[9]
  toxicity: appeared to be toxic
